# Laboratory results from US9273058B2 (BRISTOL-MYERS SQUIBB COMPANY, priority 2013, dated 2016).
# pIC50: −log10 of the molar value.
# Biological target: CK1ε (Homo sapiens, UniProt P49674)
# Experiment: CK1ε kinase assay (Caliper LabChip electrophoretic separation of fluoresceinated peptide substrate and product)
# Format: biochemical
# Conditions: 200 pM CK1ε, 50 μM ATP, 1.5 μM peptide, 22 hours at room temperature; read-out: CK1ε IC50 range
# Method: CK1ε and CK1δ Kinase Assays
# The kinase assay was performed in V-bottom 384-well plates. […] The reaction was incubated at room temperature for 22 hours and terminated by adding 45 μl of 35 mM EDTA to each sample. The reaction mixture was analyzed on the Caliper LABCHIP®3000 (Caliper, Hopkinton, Mass.) by electrophoretic separation of the unphosphorylated substrate and phosphorylated product. […] Compounds were dissolved at 10 mM in dimethylsulfoxide (DMSO) and evaluated at eleven concentrations. IC50 values were derived by non-linear regression analysis.
# Chain of CK1ε (P49674 whole entry): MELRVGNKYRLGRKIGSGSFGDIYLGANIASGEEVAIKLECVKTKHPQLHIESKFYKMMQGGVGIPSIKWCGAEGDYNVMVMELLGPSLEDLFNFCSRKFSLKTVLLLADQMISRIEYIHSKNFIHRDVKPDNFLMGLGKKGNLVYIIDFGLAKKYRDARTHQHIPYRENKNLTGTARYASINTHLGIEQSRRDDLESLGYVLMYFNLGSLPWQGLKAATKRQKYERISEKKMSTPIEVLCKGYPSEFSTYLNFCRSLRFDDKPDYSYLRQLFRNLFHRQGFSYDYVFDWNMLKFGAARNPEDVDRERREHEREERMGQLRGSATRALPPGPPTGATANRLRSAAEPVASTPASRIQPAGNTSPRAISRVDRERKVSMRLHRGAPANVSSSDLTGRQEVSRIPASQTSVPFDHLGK
row,Structure (SMILES),pIC50
1,"CC(C)(NC(=O)N1CCn2nc(-c3cccc(F)c3)c(C(N)=O)c2C1)c1ccccc1 [Compound 25, 2-(3-Fluorophenyl)-N^5-(2-phenylpropan-2-yl)-6,7-dihydropyrazolo[1,5-a]pyrazine-3,5(4H)-dicarboxamide]",7.00 to 8.00
2,"COc1cc(F)cc(-c2nn3c(c2C(N)=O)CN(C(=O)NC(C)(C)C)CC3)c1 [Compound 137, N^5-(tert-Butyl)-2-(3-fluoro-5-methoxyphenyl)-6,7-dihydropyrazolo[1,5-a] pyrazine-3,5(4H)-dicarboxamide]",7.00 to 8.00
3,"NC(=O)c1c(-c2cccc(F)c2)nn2c1CN(C(=O)Nc1ccnc(Cl)c1)CC2 [Compound 90, N^5-(2-Chloropyridin-4-yl)-2-(3-fluorophenyl)-6,7-dihydropyrazolo[1,5-a]pyrazine-3,5(4H)-dicarboxamide]",7.00 to 8.00
4,"NC(=O)c1c(-c2ccc(F)cc2)nn2c1CN(C(=O)NC1CCCCC1)CC2 [Compound 3, N^5-Cyclohexyl-2-(4-fluorophenyl)-6,7-dihydropyrazolo[1,5-a]pyrazine-3,5(4H)-dicarboxamide]",7.00 to 8.00
6,"COc1ccc(NC(=O)N2CCn3nc(-c4cccc(F)c4)c(C(N)=O)c3C2)cc1OC [Compound 66, N^5-(3,4-Dimethoxyphenyl)-2-(3-fluorophenyl)-6,7-dihydropyrazolo[1,5-a]pyrazine-3,5(4H)-dicarboxamide]",7.00 to 8.00
7,CC(=O)N1CCC(NC(=O)N2CCn3nc(-c4cccc(F)c4)c(C(N)=O)c3C2)CC1 [Compound 97],7.00 to 8.00
8,"CCC1CN(C(=O)NC(C)(C)C)Cc2c(C(N)=O)c(-c3ccc(F)c(Cl)c3)nn21 (single isomer, unassigned) [Compound A98, N^5-(tert-Butyl)-2-(3-chloro-4-fluorophenyl)-7-ethyl-6,7-dihydropyrazolo[1,5-a]pyrazine-3,5(4H)-dicarboxamide]",8.00 to 11.00
9,"CC(C)(C)NC(=O)N1CCn2nc(-c3cc(F)cc(F)c3)c(C(N)=O)c2C1 [Compound 105, N^5-(tert-Butyl)-2-(3,5-difluorophenyl)-6,7-dihydropyrazolo[1,5-a] pyrazine-3,5(4H)-dicarboxamide]",7.00 to 8.00
10,"NC(=O)c1c(-c2cccc(F)c2)nn2c1CN(C(=O)Nc1cc(Cl)ccc1F)CC2 [Compound 33, N^5-(5-Chloro-2-fluorophenyl)-2-(3-fluorophenyl)-6,7-dihydropyrazolo[1,5-a]pyrazine-3,5(4H)-dicarboxamide]",7.00 to 8.00
11,"NC(=O)c1c(-c2cccc(F)c2)nn2c1CN(C(=O)Nc1cncnc1)CC2 [Compound 84, 2-(3-Fluorophenyl)-N^5-(pyrimidin-5-yl)-6,7-dihydropyrazolo[1,5-a]pyrazine-3,5(4H)-dicarboxamide]",7.00 to 8.00
12,"NC(=O)c1c(-c2cccc(F)c2)nn2c1CN(C(=O)NCc1ccc(Cl)c(Cl)c1)CC2 [Compound 46, N^5-(3,4-Dichlorobenzyl)-2-(3-fluorophenyl)-6,7-dihydropyrazolo[1,5-a]pyrazine-3,5(4H)-dicarboxamide]",7.00 to 8.00
13,"NC(=O)c1c(-c2cccc(F)c2)nn2c1CN(C(=O)Nc1ccc(OC(F)F)cc1)CC2 [Compound 89, N^5-(4-(Difluoromethoxy)phenyl)-2-(3-fluorophenyl)-6,7-dihydropyrazolo[1,5-a]pyrazine-3,5(4H)-dicarboxamide]",7.00 to 8.00
14,"N#Cc1ccc(NC(=O)N2Cc3c(C(N)=O)c(-c4cccc(Cl)c4)nn3C(CF)C2)cc1 (centres unmarked) [Compound A4, 2-(3-Chlorophenyl)-N^5-(4-cyanophenyl)-7-(fluoromethyl)-6,7-dihydropyrazolo[1,5-a]pyrazine-3,5(4H)-dicarboxamide]",8.00 to 11.00
